Results taken from patent US20250360183A1, “USE OF GMI FROM GANODERMA LUCIDUM SPORES IN THE PREPARATION OF PHARMACEUTICALS AND FOOD PRODUCTS” (Titan Biological & Agricultural Technology Co., Limited, priority 2024, published 2025).

Experiments:
[1] = system: fibronectin, COL1A1, and α-SMA; assay: Western blot of fibrosis markers in TGF-β1-induced fibrotic LL29 cells; assay type: cell-based, human; conditions: LL29 cells stimulated with TGF-β1 5 ng/ml, normalized to α-tubulin
Method: In the in vitro experiments, cells were pre-treated with test compounds and subsequently stimulated with recombinant TGF-β1 to induce fibrotic processes. TGF-β1 plays a critical role in epithelial-mesenchymal transition (EMT), a key driver in the differentiation of fibroblasts into myofibroblasts. LL29 cells, derived from IPF patient lung fibroblasts, were obtained from ATCC®. Upon reaching 70% confluence, cells were pre-treated with selected concentrations of GMI in low-serum media for 2 hours, followed by exposure to 5 ng/ml of recombinant human TGF-β1 (R&D Systems, MN, USA) for 48 hours.
Cell lysates were prepared in RIPA buffer. […] Protein expression was quantified using Fiji software.
The present invention evaluated the expression levels of fibronectin, COL1A1, and alpha-smooth muscle actin (α-SMA), as these proteins are key markers associated with myofibroblasts and extracellular matrix (ECM) remodeling.
FIG. 3 (A) presents the results of Western blot analysis showing the expression of fibronectin, COL1A1, α-SMA, and the internal loading control α-tubulin. FIGS. 3 (B), (C) and (D) show the quantification of protein expression based on band intensity, represented as fold changes in the ratios of fibronectin/α-tubulin, COL1A1/α-tubulin, and α-SMA/α-tubulin, normalized to the untreated control (NT) group. […]

[2] = system: BLM-induced pulmonary fibrosis; assay: BLM-induced pulmonary fibrosis mouse model; assay type: in vivo, C57BL/6J mice; conditions: BLM 2.5 U/kg mice
Method: Four groups were intratracheally administered bleomycin (BLM; 2.5 U/kg) to induce pulmonary fibrosis, while one group served as a normal control. The treatment groups included: BLM-only, BLM+GMI (1 mg/kg), BLM+GMI (2 mg/kg), and BLM+PFD (200 mg/kg). All surviving animals were sacrificed on day 22.

Cc1ccc(=O)n(-c2ccccc2)c1 [PFD, pirfenidone]
expression levels of fibronectin, COL1A1 and α-SMA [1]: failed to suppress the TGF-β1-induced upregulation | survival rate ([2]; PFD 200 mg/kg): 50% | lung appearance (gross examination, color) ([2]; compared to normal group): color and appearance comparable to the normal group
